From patent publication US20240148745A1, “COMPOUNDS FOR USE IN PROGRESSIVE MULTIPLE SCLEROSIS” (FONDAZIONE CENTRO SAN RAFFAELE, priority 2021, published 2024)
“Also recorded” adds a separate entry of the source.

How the values were obtained:
[1] = test system: mouse cortical and striatal neurons; test: Morphological integrity evaluation, NMDA 20 μM; type: cell-based; settings: 1 μM, 24 h pre-treatment, NMDA 20 μM 24 h
Protocol: Morphological integrity evaluation. Mouse cortical and striatal neurons (14 DIV) cultured in MW96 plates were exposed to 1 uM to 60 uM concentrations of NMDA and relationship between the NMDA dose and fiber length was evaluated. […] Each of the compound was tested in quadruplicate. The fiber length was evaluated by MAP2 staining (please see the method described earlier).
42 compounds were screened to evaluate the morphological integrity of cortical and striatal neurons upon chronic (24 h) NMDA exposure at concentration of 20 μM with compounds pre-treatment (24 h) in preventive regimen (FIG. 17).

[2] = test system: rat oligodendrocyte progenitor CG4 line; test: Differentiation assay on rat oligodendrocyte progenitor CG4 line (HCS, mCherry+); type: cell-based; settings: secondary screen of 49 selected compounds, 1 μM, 5 days
How it was run: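 Double-reporter CG4 cells (mCherry in mature oligodendrocytes, EGFP in all lineage stages) proliferated 24 h, then given compounds at 1 μM for 5 days of differentiation, ⅔ medium changed at day 3. 9cis-RA as positive control, basal medium and 0.1% DMSO as negative; triplicates imaged by HCS, 35 fields/well.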

rat primary OPC cultures = test: Differentiation of rat primary OPC into MBP+ OLs; type: cell-based; settings: 96 h, 4 days of differentiation, read-out: MBP+ differentiation (MBP+/SOX10+ OLs plus compounds / plus basal medium)
How it was run: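 Primary rat OPCs were differentiated for 4 days with compounds at […], in triplicate over 3 independent experiments. Cells were immunolabelled for CNPase, MBP and SOX10, and MBP+ oligodendrocytes were counted by imaging. Results are fold increase in MBP+/SOX10+ cells over basal medium; 9-cis-RA ([…]) was the positive control.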

[3] = test system: H9-derived human neural stem cells; test: Neurotoxic or regenerative effect screening (CellTiter-Glo); type: cell-based; settings: 10 μM, three independent screenings
Protocol: H9-derived human neural stem cells (H9 hNSCs, Gibco) were cultured according to the manufacturer's instructions. Briefly, H9 hNSCs were expanded and subsequently differentiated in neurobasal medium, 2% B27, 1% Glutamax, and 1% penicillin/streptomycin, supplemented with 10 ng/ml BDNF (Peprotech), and 2 ng/ml recombinant human GDNF (Peprotech). After 7 days, 500 μM of db-cAMP (N6,2′-O-dibutyryladenosine 3′,5′-cyclic monophosphate, Sigma) was added.
The metabolic activity/viability of selected compounds (32 “Front Runners”+24 compounds from the “Short list”) was evaluated by CellTiter-Glo® Luminescent Cell Viability Assay. The primary screen of Front Runner List (32 compounds)+24 compounds from Short List) on H9-derived human neurons was performed at 10 μM concentration. The validation of hits from primary screen on H9-derived human neurons was performed at 10 μM concentration.
32 Front Runners were tested at 10 μM on H9-derived human neuronal cultures and viability was evaluated by CellTiter-Glo® Luminescent Cell Viability Assay.

mouse cortical neurons = test: Morphological integrity evaluation, NMDA 8 μM (MAP2 neurite length and branching); type: cell-based; settings: 3 h pre-treatment, NMDA 8 μM 24 h, Z>0.5 criteria
How it was run: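 Mouse cortical neurons (14 DIV) pre-treated 3 h with compounds, then exposed 24 h to 8 μM NMDA; fixed, MAP2 immunostained with DAPI. Total neurite length and non-trunk branch number from 15 images/well, triplicates, converted to plate-based Z-scores; NAC positive, staurosporine and NMDA negative controls.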

[4] = test system: human iPS-derived neuroprecursors; test: Differentiation of human iPS-derived neuroprecursors into MBP+ oligodendrocytes; type: cell-based; settings: 1 μM in minimal medium, p<0.05
Excerpt: NPC bearing a doxycycline inducible polycistronic construct containing SOX10, OLIG2 and NKX6.2^29 in a human safe harbor (passages 10 to 25) were singularized on day −3 by treatment with Accutase and plated on Matrigel-coated 12-well plates at a density of 100.000 cells per well in N2B27-medium containing equal parts of neurobasal (Invitrogen) and DMEM-F12 medium (Invitrogen) with 1:100 B27 supplement lacking vitamin A (Invitrogen), 1:200 N2 supplement (Invitrogen), 1% penicillin/streptomycin/glutamine (PSG), 3 μM CHIR99021 (Axon Medchem), 150 μM ascorbic acid and 0.5 μM SAG. The next day medium was changed to N2B27-medium containing 1 μg/ml doxycycline. On DO medium was changed to glial-induction medium (GIM) consisting of DMEM-F12 with 1:100 B27 supplement lacking vitamin A, 1:200 N2 supplement, 1% PSG, 1 μM SAG, 10 ng/mL NT3 (Peprotech), 10 ng/mL IGF-I (Peprotech), 200 μM AA (Sigma), 1:1000 Trace Elements B (Corning). For full medium conditions 10 ng/ml T3 was added. On Day 2 medium was changed to glial-differentiation medium (GDM) comprising DMEM-F12 with 1:100 B27 supplement lacking vitamin A, 1:200 N2 supplement, 1% PSG, 100 μM dbCAMP (Sigma), 100 μM AA, 1:1000. For full medium conditions 60 ng/mL T3, Trace Elements B 10 ng/mL, IGF-I, 10 ng/mL and NT3 were added to the culture. GDM was changed every other day. On day 7 cells were detached by treatment with Accutase and re-plated on laminin coated 48-well plates at densities of 10.000-12.000 cells per well. After 24 h cells were treated in minimal medium with either vehicle alone [0.01% (vol/vol) DMSO] as a negative control, 60 ng/mL T3 as a positive control, or with a drug candidate dissolved in DMSO. Medium was changed every other day. On D16 doxycycline was removed from the medium. Cells were fixed on D21 and analyzed via immunocytochemistry.
Immunocytochemistry. Cells were initially fixed with 4% PFA treatment for 20 min, RT. Following three washes with PBS cells were incubated with blocking solution containing 5% normal goat serum (NGS) and 5% FCS (fetal calf serum) in PBS for 30 min at RT to prevent unspecific binding of the antibodies. To detect intracellular antigens cells were permeabilized by adding 0.5% Triton X-100 to the Blocking-solution. Cells treated with Triton X-100 were washed three times with PBS each time for 5 min at RT. Primary antibodies (rat anti-MBP,1:50, Abcam, AB7349) were applied overnight, 4° C., in blocking solution. The next day cells were washed 3 times with PBS at RT, and afterwards incubated with secondary antibodies (AF488 Alexa Fluor anti-rat (goat), 1:500, Jackson/Dianova, #112-545-167) diluted in PBS for 1 h at RT. Secondary antibodies were subsequently removed by washing 3 times with PBS. Afterwards PBS containing a Dapi staining for nuclei was added for 5 minutes and afterwards washed off with PBS. Cells were kept at 4° C. until imaging.
Imaging and evaluation. From each condition (triplicates) 20-30 pictures were taken randomly chosen by the Dapi-signal. Cell numbers were determined by using an ImageJ Macro to count the nuclei whereas MBP positive cells were subsequently counted manually in black and white images.
The effect on oligodendroglial differentiation of 32 compounds (“Front runners”) was tested. Induced pluripotent stem cells in which the transcription factors SOX10, OLIG2, NKX6.2 were inserted in a doxycycline inducible manner into a human safe harbor were differentiated into neural stem cells. Differentiation into oligodendrocytes was induced by addition of doxycycline. Cells were cultured either in a minimal medium (MM) (negative control) or in MM with the different compounds at a concentration of 1 μM. Addition of T3 to the minimal medium served as a positive control.

[5] = test system: murine cortical neurons (14 DIV); test: NMDA-mediated neuroprotective assay (CCK8 viability); type: cell-based, mouse; settings: 1 μM, 3 h pre-treatment, NMDA 8 μM 24 h, p<0.05
How it was run: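 Primary murine cortical neurons pre-treated with 1 μM compound for 3 or 24 h, then exposed to 8 μM NMDA for 24 h. Viability read by CCK-8 and expressed relative to NMDA-only control; vehicle 0.02% DMSO.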

Row | Compound | morphological integrity (neurite length) of cortical and striatal neurons [1] | CG4 differentiation compared with 9cis-RA positive control [2] | fold induction at 1 µM (rat primary OPC cultures) | cumulative Z-scores of ATP production/viability [3] | further results
1 | COc1ccc2c(OCc3nnc4ccc(-c5ccccc5)nn34)ccnc2c1 [AMG-208] | selected for confirmation | – | – | – | –
2 | C=CCc1ccccc1OCC(O)CNC(C)C (stereo not shown) [Alprenolol] | – | promoting differentiation significantly higher than 9cis-RA positive control | > 1.6 | potential hits | –
3 | O=c1[nH]c2cccc(N3CCN(Cc4cccc(-c5ccccc5)c4)CC3)c2o1 [Bifeprunox] | selected for confirmation | – | – | – | preservation of neurite length and network integrity (branching) (mouse cortical neurons): preserved both neurite length and the network integrity (branching); preservation of neurite length and network integrity (branching) (mouse cortical neurons; listed as BIFEPRUNOX): two best-performing compounds
4 | COc1ccc(Cl)cc1[C@]1(F)C(=O)Nc2cc(C(F)(F)F)ccc21 [Flindokalner] | selected for confirmation | – | – | – | –
5 | Cc1c(Cn2c(C)nc3c(C(=O)O)cc(N4CCOCC4)cc32)cccc1C(F)(F)F [GSK-2636771] | selected for confirmation | – | – | – | –
6 | COc1ccc(S(=O)(=O)n2cc(CCC(=O)O)c3cc(OC)ccc32)cc1 [Indeglitazar] | – | promoting differentiation significantly higher than 9cis-RA positive control | > 1.6 | potential hits | differentiation into MBP+ oligodendrocytes [4]: promote significantly (p<0.05) the differentiation into MBP+ oligodendrocytes
7 | Cc1ncc(OC[C@@]2(c3cccc(F)c3)C[C@H]2C(=O)Nc2ccc(F)cn2)c(C)n1 [Lemborexant] | – | promoting differentiation significantly higher than 9cis-RA positive control | > 1.6 | potential hits | –
8 | O=C(Oc1ccc(Br)cc1)N1CCN2CCC1CC2 [SSR180711] | selected for confirmation | – | – | – | neuroprotection of viability/metabolic activity against NMDA [5]: hit compounds; preservation of neurite length and network integrity (branching) (mouse cortical neurons): preserved both neurite length and the network integrity (branching); also recorded: two best-performing compounds
9 | C[C@@H](C(=O)O)c1ccc(-c2ccccc2)c(F)c1 [Tarenflurbil] | selected for confirmation | – | – | – | neuroprotection of viability/metabolic activity against NMDA [5]: trend versus significance
10 | CCC(COC(=O)c1cc(OC)c(OC)c(OC)c1)(c1ccccc1)N(C)C (stereo not shown) [Trimebutine] | hit-compound in both cortical and striatal neuronal assays | – | – | – | –
